Assay results reported in patent US20260138970A1, “MODULATORS OF THE CALCIUM SIGNALING CASCADE” (FONDAZIONE TELETHON ETS, priority 2022, published 2026).

Legend:
[1] = system: protease-activated and bradykinin receptors; settings: protease-activated and bradykinin receptor agonists; cited from earlier work
[2] = system: ENaC; test: Short-circuit current recordings on human cultured bronchial epithelia, ENaC function; type: cell-based; settings: apical addition; ARN7149 10 μM, ARN11391 20 μM, ARN4550 20 μM, UTP 10 nM; FIG. 9
Text: In a further experimental setting, snapwell supports (cc3801, Corning) carrying differentiated bronchial epithelia generated in vitro were mounted in a vertical chamber resembling an Ussing system with internal fluid circulation (EM-CSYS-8, Physiologic Instruments, San Diego, CA, USA). The apical and basolateral hemichambers were filled with a solution containing (in mM): 126 NaCl, 0.38 KH2PO4, 2.13 K2HPO4, 1 MgSO4, 1 CaCl2), 24 NaHCO3, and 10 glucose. Both sides were continuously bubbled with a gas mixture containing 5% CO2 and 95% air. The temperature of the solution was kept at 37° C. throughout the experiment.
During recordings, the following molecules (in addition to ARN7149, ARN11391, and ARN4550) were added in the apical solution: elastase (SE2093002, Serva); UTP (U6625, Merck); amiloride (A7410, Merck). Transepithelial voltage was short-circuited with a voltage-clamp (VCC MC8, Physiologic Instruments, San Diego, CA, USA) connected to the apical and basolateral chambers via Ag—AgCl electrodes and agar bridges (2% agar in 1 M KCl). The offset between voltage electrodes and the fluid resistance were cancelled before experiments. The resulting short-circuited current from each channel was recorded on a personal computer with the Acquire & Analize 2.3 software (Physiologic Instruments, San Diego, CA, USA).

[3] = molecular target: ITPR1 (Homo sapiens, UniProt Q14643); test: ci-IP3/PM uncaging assay in HEK293 cells with selective expression of ITPR1 (HEKR1); type: cell-based; design: host or cells: HEKR1 (HEK293); settings: compounds 10 μM; FIG. 4B
Sequence of ITPR1 (Q14643 whole entry): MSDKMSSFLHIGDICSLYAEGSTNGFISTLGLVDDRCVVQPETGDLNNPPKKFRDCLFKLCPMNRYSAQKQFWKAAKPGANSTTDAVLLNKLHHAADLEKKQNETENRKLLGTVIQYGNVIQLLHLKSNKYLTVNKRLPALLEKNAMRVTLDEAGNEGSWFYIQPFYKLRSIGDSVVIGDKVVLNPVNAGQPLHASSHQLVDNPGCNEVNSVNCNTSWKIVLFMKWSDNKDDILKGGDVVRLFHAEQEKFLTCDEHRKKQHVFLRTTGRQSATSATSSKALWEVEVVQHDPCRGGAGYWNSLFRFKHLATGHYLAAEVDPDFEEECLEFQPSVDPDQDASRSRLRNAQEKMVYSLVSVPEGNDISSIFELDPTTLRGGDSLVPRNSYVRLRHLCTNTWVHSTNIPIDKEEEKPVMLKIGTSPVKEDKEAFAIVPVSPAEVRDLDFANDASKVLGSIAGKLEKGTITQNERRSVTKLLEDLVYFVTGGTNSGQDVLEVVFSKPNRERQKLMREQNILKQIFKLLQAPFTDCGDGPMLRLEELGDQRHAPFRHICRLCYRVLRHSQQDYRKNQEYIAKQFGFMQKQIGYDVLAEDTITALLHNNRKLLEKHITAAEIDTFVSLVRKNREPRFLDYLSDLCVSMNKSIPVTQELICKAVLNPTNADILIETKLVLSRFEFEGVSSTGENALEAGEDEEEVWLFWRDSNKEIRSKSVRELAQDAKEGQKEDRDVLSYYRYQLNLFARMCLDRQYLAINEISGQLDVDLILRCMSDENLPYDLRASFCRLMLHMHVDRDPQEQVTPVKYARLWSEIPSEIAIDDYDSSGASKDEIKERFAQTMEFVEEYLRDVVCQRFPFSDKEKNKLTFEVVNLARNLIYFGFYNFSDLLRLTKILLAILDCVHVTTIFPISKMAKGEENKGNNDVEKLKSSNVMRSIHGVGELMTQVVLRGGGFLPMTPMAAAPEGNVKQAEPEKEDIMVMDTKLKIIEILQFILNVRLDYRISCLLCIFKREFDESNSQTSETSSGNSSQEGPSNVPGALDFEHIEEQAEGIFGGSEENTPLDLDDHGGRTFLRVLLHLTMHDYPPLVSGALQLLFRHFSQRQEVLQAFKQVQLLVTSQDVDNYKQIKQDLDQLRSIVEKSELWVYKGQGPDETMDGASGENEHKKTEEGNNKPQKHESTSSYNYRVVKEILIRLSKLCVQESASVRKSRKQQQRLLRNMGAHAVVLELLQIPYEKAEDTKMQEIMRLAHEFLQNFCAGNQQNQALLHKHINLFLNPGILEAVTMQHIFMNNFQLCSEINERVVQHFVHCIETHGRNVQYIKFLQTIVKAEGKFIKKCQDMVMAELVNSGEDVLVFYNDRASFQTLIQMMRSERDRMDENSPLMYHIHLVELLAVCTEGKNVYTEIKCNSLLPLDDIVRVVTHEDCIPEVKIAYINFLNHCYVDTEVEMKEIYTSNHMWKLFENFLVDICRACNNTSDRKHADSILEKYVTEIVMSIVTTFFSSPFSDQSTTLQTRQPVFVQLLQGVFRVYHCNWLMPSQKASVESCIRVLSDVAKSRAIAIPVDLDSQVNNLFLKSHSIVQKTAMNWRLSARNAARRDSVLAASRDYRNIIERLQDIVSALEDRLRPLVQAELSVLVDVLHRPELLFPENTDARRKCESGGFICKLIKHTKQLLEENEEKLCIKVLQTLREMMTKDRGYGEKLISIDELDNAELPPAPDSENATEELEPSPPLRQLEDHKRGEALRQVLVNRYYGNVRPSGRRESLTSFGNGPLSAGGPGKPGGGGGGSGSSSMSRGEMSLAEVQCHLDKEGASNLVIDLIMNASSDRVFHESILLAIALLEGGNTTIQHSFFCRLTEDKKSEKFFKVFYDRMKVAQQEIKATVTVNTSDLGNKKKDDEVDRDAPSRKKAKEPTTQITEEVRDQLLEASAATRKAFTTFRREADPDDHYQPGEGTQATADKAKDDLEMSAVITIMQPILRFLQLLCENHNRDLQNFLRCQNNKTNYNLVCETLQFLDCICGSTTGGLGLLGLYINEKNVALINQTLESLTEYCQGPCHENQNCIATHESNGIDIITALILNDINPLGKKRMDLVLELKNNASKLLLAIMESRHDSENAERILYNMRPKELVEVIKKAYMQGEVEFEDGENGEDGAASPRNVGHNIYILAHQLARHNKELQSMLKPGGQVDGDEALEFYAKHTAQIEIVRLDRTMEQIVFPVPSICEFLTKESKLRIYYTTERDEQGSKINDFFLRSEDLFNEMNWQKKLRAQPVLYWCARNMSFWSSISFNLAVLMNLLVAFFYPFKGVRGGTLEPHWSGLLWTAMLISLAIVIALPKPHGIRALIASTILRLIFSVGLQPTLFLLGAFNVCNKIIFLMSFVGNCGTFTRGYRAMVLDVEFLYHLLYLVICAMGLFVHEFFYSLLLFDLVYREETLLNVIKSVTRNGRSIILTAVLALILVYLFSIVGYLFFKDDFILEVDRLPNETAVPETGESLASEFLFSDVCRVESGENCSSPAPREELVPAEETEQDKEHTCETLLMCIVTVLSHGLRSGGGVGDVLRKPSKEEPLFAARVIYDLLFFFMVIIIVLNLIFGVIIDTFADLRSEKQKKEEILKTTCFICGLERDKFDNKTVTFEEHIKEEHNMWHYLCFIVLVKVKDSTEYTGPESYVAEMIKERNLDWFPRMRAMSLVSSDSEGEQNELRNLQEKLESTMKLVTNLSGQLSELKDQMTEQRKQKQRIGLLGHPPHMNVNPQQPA
Description: HEK293 cells totally devoid of ITPR expression (HEK3XKO) or with selective expression of ITPR1 (HEKR1), ITPR2 (HEKR2), or ITPR3 (HEKR3), obtained by selective gene ablation, were purchased from Kerafast (catalog number: EURO30, EURO31, EURO32, EURO33) and cultured in a mixture of Dulbecco's Modified Eagle Medium (DMEM, high glucose version) and Ham's F12 (1:1) and supplemented with 10% fetal bovine serum, 2 mM L-glutamine, 100 U/ml penicillin and 100 μg/ml streptomycin.
(§1) FRT and HEK293 cells were cultured in μ-Plate96 microplates (Ibidi) at subconfluent condition. Cells were washed 2 times with PBS (150 μl/wash) and then loaded for 45 min at 37° C. with 1 μM ci-IP3/PM (Tocris; catalog number: 6210/10U) and 5 μM Fluo-4/AM (Thermo Fisher Scientific) in PBS containing 10 mM glucose, 0.5 mM sulfinpyrazone and 1% fetal bovine serum. After 45 min, cells were further incubated for 1 h at 37° C. with a fresh PBS solution containing Fluo-4/AM, glucose, sulfinpyrazone, serum, but no ci-IP3/PM. […] Analysis was performed with MetaFluor software, by quantifying Fluo-4 fluorescence in manually selected single cell region of interest (ROI). […] After background subtraction, fluorescence traces were normalized for the initial value.

[4] = molecular target: T1, T267M ITPR1 (Homo sapiens, UniProt Q14643, T267M); test: IP3 uncaging assay, HEK293 cells expressing T267M-ITPR1; type: cell-based; settings: compound 10 μM; tetracycline-treated; FIG. 6D
T1 construct: expressed in transfected cells
Description: (§2) HEK293 cells stably transfected with tetracycline-inducible expression of wild type or mutant (R269W or T267M) ITPR1, kindly provided by Prof. S. R. Wayne Chen (University of Calgary; ref. 14), were cultured in a mixture of Dulbecco's Modified Eagle Medium (DMEM, high glucose version) and Ham's F12 (1:1) and supplemented with 10% fetal bovine serum, 2 mM L-glutamine, 100 U/ml penicillin and 100 μg/ml streptomycin. Cells were selected with 0.5 mg/ml hygromycin B and induced with 1 μg/ml tetracycline.
as §1

[5] = molecular target: T2, R269W ITPR1 (Homo sapiens, UniProt Q14643, R269W); test: IP3 uncaging assay, HEK293 cells expressing R269W-ITPR1; type: cell-based; settings: compound 10 μM; tetracycline-treated; FIG. 6D
T2 construct: expressed in transfected cells
Description: as §2, §1

[6] = system: protease-activated receptors; test: Fluo-4 Ca2+ assay, SLIGR-NH2 stimulus, HEKR2 cells; type: cell-based; settings: SLIGR-NH2 4 μM; compounds 10 μM; FIG. 5C bottom
Description: Experiments were performed using the microplate reader described for the HS-YFP assay. FRT and HEK293 cells were cultured until confluence in 96-well microplates (3603, Corning). Cells were washed 2 times with PBS (150 μl/wash) and then loaded for 1 h at 37° C. with 5 μM Fluo-4/AM (Thermo Fisher Scientific; catalog number: F23917) in PBS containing 10 mM glucose, 0.5 mM sulfinpyrazone, and 1% fetal bovine serum. After loading, cells were washed 2 times with PBS-glucose-sulfinpyrazone (150 μl/wash) and incubated for 20 min at 37° C. with 60 μl of PBS plus 10 mM glucose and 0.5 mM sulfinpyrazone containing compounds of interest at 10 μM final concentration or vehicle. Each well was assayed individually. Fluo-4 fluorescence (500 nm excitation, 535 nm emission) was detected every 200 ms for 16-40 s. Two seconds after the start of fluorescence recording, the reader automatically injected 165 μl of a modified PBS containing 136 mM KCl instead of NaCl. This solution also contained 10 mM glucose, 0.5 mM sulfinpyrazone, and UTP or SLIGR-NH2 (CAS #171436-38-7) at a final concentration that depended on the specific cell type. […] The Fluo-4 fluorescence increase was quantified using a procedure compiled in Microsoft Excel after background subtraction and normalization for the initial value measured before UTP addition.

CCc1cc(-c2cc(NCCCOc3ccccc3C)nc(N)n2)n(C)n1 [ARN7149, 6-(3-Ethyl-1-methyl-1H-pyrazol-5-yl)-N^4-(3-(o-tolyloxy)propyl)pyrimidine-2,4-diamine]
effectiveness by agonist inducing Ca2+ mobilization (UTP vs other GPCR agonists) [1]: only effective when Ca^2+ mobilization is induced by UTP | ENaC current decay (ENaC inhibition), short-circuit current [2]: caused ENaC current decay

CCn1nc2c(c1C(=O)Nc1ccccc1OCC1CCCCO1)CCCC2 (stereo not shown) [ARN11391, 2-Ethyl-N-[2-(tetrahydropyran-2-ylmethoxy)phenyl]-4,5,6,7-tetrahydroindazole-3-carboxamide]
activity on Ca2+ mobilization by IP3 uncaging, cells with selective expression of ITPR1 [3]: uniquely effective | Ca2+ mobilization elicited by IP3 uncaging, T267M-ITPR1 [4]: significantly amplified | Ca2+ mobilization elicited by IP3 uncaging, R269W-ITPR1 [5]: significantly amplified

OCc1ccccc1CN(Cc1ccnc(N2CCCC2)n1)c1ccc(F)cc1 [ARN4550, [2-[[4-Fluoro-N-[(2-pyrrolidin-1-ylpyrimidin-4-yl)methyl]anilino]methyl]phenyl]methanol]
potentiation of SLIGR-NH2 stimulus (Ca2+ mobilization), HEKR2 cells [6]: only compound that potentiated | ENaC current decay (ENaC inhibition), short-circuit current [2]: caused ENaC current decay
